# Test results as given in patent publication US8012945B2, “Phage antibodies to radiation-inducible neoantigens” (Vanderbilt University, priority 2001, dated 2011).
# How the values were obtained:
# [1] = system: irradiated tumors (LLC and GL261); test: In vivo screening of T7 phage peptide library, LLC and GL261 tumors pooled; parameters: species or system mice; conditions: for Frequency of Recovery: conserved motifs within peptides identified by in vivo screening
# Method: GL261 murine glioma cells and Lewis lung carcinoma cells were implanted into the hind limb of C57BL6 mice (Hallahan et al., 1995b; Hallahan et al., 1998; Hallahan & Virudachalam, 1999).
# For in vivo screening, tumors were irradiated with 3 Gy and approximately 10^10 phage (prepared as described in Example 4) were administered by tail vein injection into each of the tumor bearing mice at 4 hours following irradiation. Tumors were recovered at one hour following injection and amplified in BL21 bacteria. Amplified phage were pooled and re-administered to a tumor-bearing mouse following tumor irradiation. The phage pool was sequentially administered to a total of 6 animals. As a control, wild type phage lacking synthetic peptide inserts were identically administered to a second experimental group of animals.
# To determine the titer of phage binding in a tumor or in normal tissue, recovered phage were amplified in BL21 bacteria. Bacteria were plated and the number of plaques present were counted. To determine the total phage output per organ, the number of plaque forming units (PFU) on each plate was divided by the volume of phage plated and the weight of each organ.
# An individual phage suspension was used as template. Amplified peptides were sequenced using an ABI PRISM 377 sequencer (PE Biosystems, Foster City, Calif., United States of America).
# [2] = system: melanoma, lung carcinoma, and glioma tumor models; test: Binding of peptide-encoding phage in additional tumor models; assay type: in vivo, mice; conditions: B16F0 melanoma, Lewis lung carcinoma, GL261 glioma
# Text: The binding properties of phage encoding […] (SEQ ID NO: 1), […] (SEQ ID NO: 2), […] (SEQ ID NO: 3), and NSVGSRV (SEQ ID NO: 4) were additionally characterized in a B16F0 melanoma model.
# LLC tumors = test: In vivo screening of T7 phage peptide library, irradiated LLC tumors; parameters: species or system mice; conditions: 3 Gy, 6 rounds of in vivo screening; for Number of Phage Recovered from LLC tumors: randomly selected phage
# Method: (§1) A population of DNA fragments encoding recombinant peptide sequences was cloned into the T7 […] vector (Novagen, Madison, Wis., United States of America). […] The resulting reading frame requires an AAT initial codon followed by a TCX codon. The molar ratio between insert and vector was 1:1. Size-fractionated cDNA inserts were prepared by gel filtration on sepharose 4B and ranged from 27 base pairs to 33 base pairs. cDNAs were ligated by use of the DNA ligation kit (Novagen, Madison, Wis., United States of America). Recombinant T7 DNA was packaged according to the manufacturer's instructions and amplified prior to bioscreening in animal tumor models. […] GL261 murine glioma cells and Lewis lung carcinoma cells were implanted into the hind limb of C57BL6 mice ([…] et al., 1995[…] et al., 1998; […], 1999). […] Tumors were recovered at one hour following injection and amplified in BL21 bacteria. Amplified phage were pooled and re-administered to a tumor-bearing mouse following tumor irradiation. The phage pool was sequentially administered to a total of 6 animals. […] To determine the titer of phage binding in a tumor or in normal tissue, recovered phage were amplified in BL21 bacteria. Bacteria were plated and the number of plaques present were counted. To determine the total phage output per organ, the number of plaque forming units (PFU) on each plate was divided by the volume of phage plated and the weight of each organ. […] Following 6 rounds of in vivo screening, fifty recombinant phage peptides that bound within irradiated tumors were randomly selected for further analysis. The nucleic acid sequence encoding recombinant phage was amplified by PCR using primers set forth as SEQ ID NOs: 14-15 (available from Novagen, Madison, Wis., United States of America). An individual phage suspension was used as template. Amplified peptides were sequenced using an ABI PRISM 377 sequencer (PE Biosystems, Foster City, Calif., United States of America).
# GL261 tumors = test: In vivo screening of T7 phage peptide library, irradiated GL261 tumors; parameters: species or system mice; conditions: 3 Gy, 6 rounds of in vivo screening; for Number of Phage Recovered from GL261 tumors: randomly selected phage
# Method: as §1
# [3] = system: P-selectin and platelet membrane glycoprotein IIB; test: Screening of phage-displayed scFv library on immobilized neoantigens, Western immunoblot, then in vivo screening of irradiated tumors; assay type: binding; conditions: recovered following in vivo screening to irradiated tumors
# Method: A phage library comprising diverse single chain antibodies was prepared in M13 phage. Briefly, nucleotide sequences encoding antibody VL and VH regions separated by a (Gly4Ser)3 linker were fused to M13 gene III nucleotide sequences. When a recombinant M13 carrying these antibody-gene III fusions infects an appropriate host bacterium, the host produces recombinant M13 phage that display scFv antibody polypeptides (VL-linker-VH) fused to gene III protein.
# The phage library was exposed to the radiation-inducible neoantigens P-selectin (also called CD62P; GENBANK™ Accession No. P98109) and/or platelet membrane glycoprotein IIB (also called CD41; GENBANK™ Accession No. P08514) immobilized on glass slides. Phage were selected based on antigen binding, and selected phage were pooled as a biased library. For representative in vitro screening methods, see Fowlkes et al., 1992; Haaparanta & Huse, 1995; Jung & Pluckthun, 1997; Peter et al., 2000; Holzem et al., 2001; Chiu et al., 2000.
# Phage identified by in vitro screening were tested on Western immunoblots to confirm binding to the P-selection and platelet membrane glycoprotein IIB neoantigens. Phage that specifically bound P-selectin and platelet membrane glycoprotein IIB were subsequently used for in vivo screening of irradiated tumors as described in Example 5. Wild type phage were used as internal controls. Antibodies having substantial affinity for irradiated tumors were identified by observing an increased number of phage in the irradiated tumor when compared to a number of phage in a control organ (e.g., liver and lung). Phage antibodies with the greatest affinity for tumors were identified using the formula: number of phage in irradiated tumor/number of phage in each organ.
molecule,measurement,setting,value
GSRV (Artificial peptide ligand number 7),share of peptide sequences recovered from 6 irradiated tumors having the subsequence,"[1]; mouse, in vivo",4%
GSSV (Artificial peptide ligand number 13),Frequency of Recovery,[1],56%
same,phage recovered from irradiated tumors,"[1]; mouse, in vivo",22-40 of 10^6 injected phage
same,share of peptide sequences recovered from 6 irradiated tumors having the subsequence,"[1]; mouse, in vivo",56%
GSXV [conserved motif within recovered peptides],Frequency of Recovery,[1],78%
NHVGGSSV (Artifical peptide ligand number 1),binding of phage encoding the peptide within tumor models,[2],"bound within the melanoma, lung carcinoma, and glioma tumor models"
same,Phage Recovered from LLC tumors (Frequency),LLC tumors,28%
same,Number of Phage Recovered from LLC tumors,LLC tumors,7
same,Phage Recovered from GL261 tumors (Frequency),GL261 tumors,48%
same,Number of Phage Recovered from GL261 tumors,GL261 tumors,12
NSLRGDGSSV (phage-displayed; Artificial peptide ligand number 2),binding of phage encoding the peptide within tumor models,[2],"bound within the melanoma, lung carcinoma, and glioma tumor models"
same,Phage Recovered from LLC tumors (Frequency),LLC tumors,28%
same,Number of Phage Recovered from LLC tumors,LLC tumors,7
same,Phage Recovered from GL261 tumors (Frequency),GL261 tumors,8%
same,Number of Phage Recovered from GL261 tumors,GL261 tumors,2
NSV (Artificial peptide ligand number 10) [conserved motif within recovered peptides],Frequency of Recovery,[1],22%
NSVGSRV (Artificial peptide ligand number 4),binding of phage encoding the peptide within tumor models,[2],bound within lung carcinoma and glioma
same,Phage Recovered from LLC tumors (Frequency),LLC tumors,4%
same,Number of Phage Recovered from LLC tumors,LLC tumors,1
same,Phage Recovered from GL261 tumors (Frequency),GL261 tumors,12%
same,Number of Phage Recovered from GL261 tumors,GL261 tumors,3
NSVRGSGSGV (Artificial peptide ligand number 3),binding of phage encoding the peptide within tumor models,[2],bound within glioma and melanoma
same,Phage Recovered from LLC tumors (Frequency),LLC tumors,28%
same,Number of Phage Recovered from LLC tumors,LLC tumors,7
same,Number of Phage Recovered from GL261 tumors,GL261 tumors,0
NSXR [conserved motif within recovered peptides],Frequency of Recovery,[1],32%
NSXRGXGS [conserved motif within recovered peptides],Frequency of Recovery,[1],32%
NXVG [conserved motif within recovered peptides],Frequency of Recovery,[1],46%
RGDGSSV (Artificial peptide ligand number 6),share of peptide sequences recovered from 6 irradiated tumors having the subsequence,"[1]; mouse, in vivo",18%
"SEQ ID NO: 24: scFv antibody encoded by SEQ ID NO: 23 (protein, nucleic acid encoding scFv antibody 10A) scFv: MAQVKLQQSGPELVKPGASVKMSCKASGYTFTSYVMHWVKQSNGKSLEWIGTIDPYYGGTSYNQKFKGKATLTVDKSSTTAYIQLKSLTSEDSAVYYCARWDGYYGGFSYWGQGTMVTVSSGGGGSGGGGSGGGGSDIELTQSPAIMSATLGEKVTMSCRASSNVKYMYWYQQKSGASPKLWIYYTSNLASGVPARFSGSGSGTSYSLTISSVEAEDAATYYCQQFTSSPYTFGSGTKLEIKRAAAGAPVPYPDPLEPRAA",neoantigen recognition,[3],recognize the radiation-inducible neoantigens P-selectin and platelet membrane glycoprotein IIB
"SEQ ID NO: 20: scFv antibody encoded by SEQ ID NO: 19 (protein, Artificial antibody ligand number 2) scFv: MAQVKLQQSGPELVKPGASVKMSCKASGYTFTSYVMHWVKQKPGQGLEWIGYINPYNDGTKYNEKFKGKAALTSDKSSSTAYMELSSLTSEDSAVYYCARFGNYGALDYWGQGTTVTVSSGGGGSGGGGSGGGGSDIELTQSPTIMSASPGEKVTITCSASSSVSYMHWFQQKPGTSPKPWIYGTSNLASGVPVRFSGSGSGTSYSLTISSMEAEDAATYYCQQWSSYPLTFGGGTKLEIKR",neoantigen recognition,[3],recognize the radiation-inducible neoantigens P-selectin and platelet membrane glycoprotein IIB
"SEQ ID NO: 22: scFv antibody encoded by SEQ ID NO: 21 (protein, Nucleic acid encoding scFv antibody 4A) scFv: MAQVQLQESGPGLVKPSQSLSLTCSVTGYSITSNYWGWIRKFPGNKMEWMGYISYSGSTSYNPSLKSRISITRDTSKNQLFLQLNSVTTEDTATYYCARYSLFNYGRRDYVMDAWGQGTTVTVSSGGGGSGGGGSGGGGSDIELTQSPATMAASPGEKVTITCRASSTVSYMHWFQQKPGASPKPWIYDTSKLASGVPDRFSGSGSGTDFTLTIDPVQADDIATYYCQQSKDDPRTFGGGTKLELKRRPQVRRCRIRIRWNRVPH",neoantigen recognition,[3],recognize the radiation-inducible neoantigens P-selectin and platelet membrane glycoprotein IIB
"SEQ ID NO: 18: scFv antibody encoded by SEQ ID NO: 17 (protein, Artificial antibody ligand number 1) scFv: MAQVKLQQSGAELVMPGASVKMSCKASGYTFTDYWMHWVKQRPGQGLEWIGAIDTSDSYTSYNQKFKGKATLTVDESSSTAYMQLSSLTSEDSAVYYCARRGYYSAFDYWGQGTTVTVSSGGGGSGGGGSGGGGSDIELTQSPTTMAASPGEKVTITCRASSSVSYMHWFQQKSGTSPKPWIYDTSKLASGVPDRFSGSGSGTSYSLTISSMEAEDAATYYCLQRSSYPYTFGAGTKLEIKR",neoantigen recognition,[3],recognize the radiation-inducible neoantigens P-selectin and platelet membrane glycoprotein IIB
